# Experimental data taken from patent US7309491B2, “Heat shock protein-based vaccines and immunotherapies” (priority 2003, dated 2007).
# Key:
# [1] = target: recombinant human or murine heat shock protein 70 (hsp70); assay: Scatchard analysis of labeled reference hybrid antigen binding to hsp70; conditions: 39% PBS, 20 mM THAM pH 8, 37 mM NaCl, 5 mM MgCl2, 1 mM ADP
# [2] = test system: CD8+ T cells; assay type: in vivo, B6 mice; conditions: mouse, in vivo
# [3] = test system: T cells of HHD II mice bearing human HLA-A2; conditions: mouse, in vivo
sequence,measurement,setting,value
ALFDIESKVGSGHWDFAWPW,Kd,[1]; fluoresceinated label,10.8 µM
same,Kd,[1]; tritiated label,22.6 µM
FFRKSIINFEKLFFRKRGYVYQGL [reference compound],"Number of Spots per 300,000 cells: Medium control",[2],1.7 ± 0.4
same,"Number of Spots per 300,000 cells: RGYVYQGL (SEQ ID NO:879)",[2],31 ± 5.5
same,"Number of Spots per 300,000 cells: SIINFEKL (SEQ ID NO:868)",[2],8.3 ± 1.1
NLLRLTGWFFRKDAPIYTNV (SEQ ID NO:910) (Hybrid antigen),"Number of Spots per 300,000 cells, Medium",[2],"0.7 ± 0.4 Spots per 300,000 cells"
same,"Number of Spots per 300,000 cells, Response to Class I epitope when Class I and Class II hybrid antigen admixture is administered",[2],"13 ± 3.9 Spots per 300,000 cells"
same,"Number of Spots per 300,000 cells, Response to Class I epitope when Class I hybrid antigen administered",[2],"2 ± 1.9 Spots per 300,000 cells"
same,"Number of Spots per 300,000 cells, Splenocytes",[2],"0 ± 0 Spots per 300,000 cells"
NLLRLTGWFFRKFAPGNYPAL (SEQ ID NO:892) (Hybrid antigen),"Number of Spots per 300,000 cells, FAPGNYPAL (SEQ ID NO:906)",[2],"4.3 ± 3.2 Spots per 300,000 cells"
same,"Number of Spots per 300,000 cells, IAYFYPEL (SEQ ID NO:904)",[2],"0.3 ± 0.6 Spots per 300,000 cells"
same,"Number of Spots per 300,000 cells, Medium",[2],"0 ± 0 Spots per 300,000 cells"
NLLRLTGWFFRKIAYFYPEL (SEQ ID NO:913) (Hybrid antigen),"Number of Spots per 300,000 cells, Medium",[2],"0 ± 0 Spots per 300,000 cells"
same,"Number of Spots per 300,000 cells, Response to Class I epitope when Class I and Class II hybrid antigen admixture is administered",[2],"73 ± 9.8 Spots per 300,000 cells"
same,"Number of Spots per 300,000 cells, Response to Class I epitope when Class I hybrid antigen administered",[2],"11 ± 3 Spots per 300,000 cells"
same,"Number of Spots per 300,000 cells, Splenocytes",[2],"0 ± 0 Spots per 300,000 cells"
NLLRLTGWFFRKIAYFYPELFFRKFAPGNYPAL,"Number of Spots per 300,000 cells: FAPGNYPAL (SEQ ID NO:891)",[2],136 ± 6.6
same,"Number of Spots per 300,000 cells: IAYFYPEL (SEQ ID NO:904)",[2],128 ± 9.2
same,"Number of Spots per 300,000 cells: RGYVYQGL (SEQ ID NO:879)",[2],1.7 ± 0.8
same,"Number of Spots per 300,000 cells: SIINFEKL (SEQ ID NO:868)",[2],1.7 ± 1.1
NLLRLTGWFFRKIMDQVPFSV,"Number of Spots per 400,000 cells: IMD",[3],"27 ± 5.1 spots per 400,000 cells"
same,"Number of Spots per 400,000 cells: Medium control",[3],"0.0 ± 0.0 spots per 400,000 cells"
same,"Number of Spots per 400,000 cells: Unpulsed control",[3],"0.0 ± 0.0 spots per 400,000 cells"
same,"Number of Spots per 400,000 cells: YMD control",[3],"2.0 ± 2.0 spots per 400,000 cells"
